Measured values taken from patent US20230295200A1 (REGENTS OF THE UNIVERSITY OF MICHIGAN, priority 2022, published 2023).

Target: T1, STAT6 protein (Homo sapiens, UniProt P42226)
T1 sequence (P42226 1-847): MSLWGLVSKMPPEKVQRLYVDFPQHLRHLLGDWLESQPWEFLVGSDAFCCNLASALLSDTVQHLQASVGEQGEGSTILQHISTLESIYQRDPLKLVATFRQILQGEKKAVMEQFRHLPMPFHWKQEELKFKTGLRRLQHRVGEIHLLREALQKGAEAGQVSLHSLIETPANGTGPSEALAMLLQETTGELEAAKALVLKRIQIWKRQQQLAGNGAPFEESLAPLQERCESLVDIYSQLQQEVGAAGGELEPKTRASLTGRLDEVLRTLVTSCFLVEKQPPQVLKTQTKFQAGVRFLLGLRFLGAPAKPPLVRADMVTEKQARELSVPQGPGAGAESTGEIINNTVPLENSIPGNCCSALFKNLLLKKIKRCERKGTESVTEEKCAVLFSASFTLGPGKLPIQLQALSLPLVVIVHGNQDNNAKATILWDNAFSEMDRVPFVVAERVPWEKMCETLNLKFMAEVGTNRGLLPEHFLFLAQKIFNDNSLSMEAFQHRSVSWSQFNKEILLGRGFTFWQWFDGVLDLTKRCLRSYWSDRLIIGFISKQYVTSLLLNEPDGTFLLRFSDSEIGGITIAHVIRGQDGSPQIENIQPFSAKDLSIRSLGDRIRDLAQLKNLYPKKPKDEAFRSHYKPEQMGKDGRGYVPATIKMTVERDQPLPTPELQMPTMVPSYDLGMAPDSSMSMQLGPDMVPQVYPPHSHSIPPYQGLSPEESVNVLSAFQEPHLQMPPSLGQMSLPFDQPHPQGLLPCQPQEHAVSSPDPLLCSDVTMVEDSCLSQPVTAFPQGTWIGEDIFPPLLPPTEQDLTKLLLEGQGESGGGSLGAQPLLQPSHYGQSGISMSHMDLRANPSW
Assay: Fluorescence polarization (FP) binding assay, STAT6
Settings: FP competition, 5 nM fluorescein-labeled tracer, 200 nM protein, PBS pH7.4; read-out: Binding STAT6
Summary of the method: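 Each well holds 200 nM STAT5 and/or STAT6 with 5 nM fluorescent tracer in PBS pH 7.4 (0.01% BGG, 0.01% Tween-20, 2 mM DTT). Binding reaches equilibrium over 1 h at room temperature after brief shaking, and polarization data are fitted nonlinearly.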

**Q.** How did the Ki turn out when `O=C(N[C@@H](CC1CCN(CC2CCCCC2)CC1)C(=O)N1CCC[C@H]1C(=O)N1CCO[C@H](c2ccccc2)C1)c1cc2cc(C(F)(F)P(=O)(O)O)ccc2s1` [Compound 294, ((2-(((S)-3-(1-(cyclohexylmethyl)piperidin-4-yl)-1-oxo-1-((S)-2-((R)-2-phenylmorpholine-4-carbonyl)pyrrolidin-1-yl)propan-2-yl)carbamoyl)benzo[b]thiophen-5-yl)difluoromethyl)phosphonic acid] was run?
**A.** Its Ki is 100 to 1000 nM.

**Q.** Which Ki does the source give for `CCC(CC)CN1CCC(C[C@H](NC(=O)c2cc3cc(C(F)(F)P(=O)(O)O)ccc3s2)C(=O)N2CCC[C@H]2C(=O)N2CCO[C@H](c3ccccc3)C2)CC1` [Compound 295, ((2-(((S)-3-(1-(2-ethylbutyl)piperidin-4-yl)-1-oxo-1-((S)-2-((R)-2-phenylmorpholine-4-carbonyl)pyrrolidin-1-yl)propan-2-yl)carbamoyl)benzo[b]thiophen-5-yl)difluoromethyl)phosphonic acid] here?
**A.** Its Ki is 100 to 1000 nM.

**Q.** With `O=C(N[C@@H](CC1CCN(CCc2ccccc2)CC1)C(=O)N1CCC[C@H]1C(=O)N1CCO[C@H](c2ccccc2)C1)c1cc2cc(C(F)(F)P(=O)(O)O)ccc2s1` [Compound 296, (difluoro(2-(((S)-1-oxo-3-(1-phenethylpiperidin-4-yl)-1-((S)-2-((R)-2-phenylmorpholine-4-carbonyl)pyrrolidin-1-yl)propan-2-yl)carbamoyl)benzo[b]thiophen-5-yl)methyl)phosphonic acid] as the compound, how does the Ki read?
**A.** The Ki was 100 to 1000 nM.

**Q.** For `O=C(N[C@@H](CC1CCN(CCCc2ccccc2)CC1)C(=O)N1CCC[C@H]1C(=O)N1CCO[C@H](c2ccccc2)C1)c1cc2cc(C(F)(F)P(=O)(O)O)ccc2s1` [Compound 297, (difluoro(2-(((S)-1-oxo-1-((S)-2-((R)-2-phenylmorpholine-4-carbonyl)pyrrolidin-1-yl)-3-(1-(3-phenylpropyl)piperidin-4-yl)propan-2-yl)carbamoyl)benzo[b]thiophen-5-yl)methyl)phosphonic acid], which Ki is on record?
**A.** Its Ki is 100 to 1000 nM.

**Q.** Which Ki does the source give for `CC(C)(C)[C@H](NC(=O)c1cc2cc(C(F)(F)P(=O)(O)O)ccc2s1)C(=O)N1C[C@H](Oc2ccccc2)C[C@H]1C(=O)N1CCO[C@H](c2ccccc2)C1` [Compound 299, ((2-(((S)-3,3-dimethyl-1-oxo-1-((2S,4R)-4-phenoxy-2-((R)-2-phenylmorpholine-4-carbonyl)pyrrolidin-1-yl)butan-2-yl)carbamoyl)benzo[b]thiophen-5-yl)difluoromethyl)phosphonic acid] here?
**A.** Its Ki is 100 to 1000 nM.

**Q.** With `CC(C)(C)[C@H](NC(=O)c1cc2cc(C(F)(F)P(=O)(O)O)ccc2s1)C(=O)N1C[C@H](OCc2ccccc2)C[C@H]1C(=O)N1CCO[C@H](c2ccccc2)C1` [Compound 300, ((2-(((S)-1-((2S,4R)-4-(benzyloxy)-2-((R)-2-phenylmorpholine-4-carbonyl)pyrrolidin-1-yl)-3,3-dimethyl-1-oxobutan-2-yl)carbamoyl)benzo[b]thiophen-5-yl)difluoromethyl)phosphonic acid] as the compound, how does the Ki read?
**A.** Its Ki is under 100 nM.

**Q.** How did the Ki turn out when `CC(C)(C)[C@H](NC(=O)c1cc2cc(C(F)(F)P(=O)(O)O)ccc2s1)C(=O)N1C[C@@H](Oc2ccccc2)C[C@H]1C(=O)N1CCO[C@H](c2ccccc2)C1` [Compound 301, ((2-(((S)-3,3-dimethyl-1-oxo-1-((2S,4S)-4-phenoxy-2-((R)-2-phenylmorpholine-4-carbonyl)pyrrolidin-1-yl)butan-2-yl)carbamoyl)benzo[b]thiophen-5-yl)difluoromethyl)phosphonic acid] was run?
**A.** The Ki was under 100 nM.

**Q.** `CN1CC[C@H]2CC[C@@H](C(=O)N3CCc4ccccc4C3)N2C(=O)[C@@H](NC(=O)c2cc3cc(C(F)(F)P(=O)(O)O)ccc3[nH]2)C1` [Compound 330, (difluoro(2-(((5S,8S,10aR)-3-methyl-6-oxo-8-(1,2,3,4-tetrahydroisoquinoline-2-carbonyl)decahydropyrrolo[1,2-a][1,5]diazocin-5-yl)carbamoyl)-1H-indol-5-yl)methyl)phosphonic acid] was tested. Which Ki did it give?
**A.** Its Ki is over 10000 nM.

**Q.** Which Ki does the source give for `CN1CC[C@H]2CC[C@@H](C(=O)N3CCc4ccccc4C3)N2C(=O)[C@@H](NC(=O)c2cc3cc(C(F)(F)P(=O)(O)O)ccc3s2)C1` [Compound 331, (difluoro(2-(((5S,8S,10aR)-3-methyl-6-oxo-8-(1,2,3,4-tetrahydroisoquinoline-2-carbonyl)decahydropyrrolo[1,2-a][1,5]diazocin-5-yl)carbamoyl)benzo[b]thiophen-5-yl)methyl)phosphonic acid] here?
**A.** Its Ki is over 10000 nM.

**Q.** Which Ki does the source give for `CC(=O)N1CC[C@H]2CC[C@@H](C(=O)N3CCc4ccccc4C3)N2C(=O)[C@@H](NC(=O)c2cc3cc(C(F)(F)P(=O)(O)O)ccc3[nH]2)C1` [Compound 332, ((2-(((5S,8S,10aR)-3-acetyl-6-oxo-8-(1,2,3,4-tetrahydroisoquinoline-2-carbonyl)decahydropyrrolo[1,2-a][1,5]diazocin-5-yl)carbamoyl)-1H-indol-5-yl)difluoromethyl)phosphonic acid] here?
**A.** Its Ki is over 10000 nM.

**Q.** `CC(=O)N1CC[C@H]2CC[C@@H](C(=O)N3CCc4ccccc4C3)N2C(=O)[C@@H](NC(=O)c2cc3cc(C(F)(F)P(=O)(O)O)ccc3s2)C1` [Compound 333, ((2-(((5S,8S,10aR)-3-acetyl-6-oxo-8-(1,2,3,4-tetrahydroisoquinoline-2-carbonyl)decahydropyrrolo[1,2-a][1,5]diazocin-5-yl)carbamoyl)benzo[b]thiophen-5-yl)difluoromethyl)phosphonic acid] was tested. Which Ki did it give?
**A.** The Ki was over 10000 nM.

**Q.** With `CC(=O)N1CC[C@H]2CC[C@@H](C(=O)N3CCc4ccccc4C3)N2C(=O)[C@@H](NC(=O)c2ccc3ccc(C(F)(F)P(=O)(O)O)cc3c2)C1` [Compound 334, ((7-(((5S,8S,10aR)-3-acetyl-6-oxo-8-(1,2,3,4-tetrahydroisoquinoline-2-carbonyl)decahydropyrrolo[1,2-a][1,5]diazocin-5-yl)carbamoyl)naphthalen-2-yl)difluoromethyl)phosphonic acid] as the compound, how does the Ki read?
**A.** The Ki was over 10000 nM.

**Q.** For `CC(=O)N1CC[C@H]2CC[C@@H](C(=O)NCc3ccccc3)N2C(=O)[C@@H](NC(=O)c2cc3cc(C(F)(F)P(=O)(O)O)ccc3[nH]2)C1` [Compound 335, ((2-(((5S,8S,10aR)-3-acetyl-8-(benzylcarbamoyl)-6-oxodecahydropyrrolo[1,2-a][1,5]diazocin-5-yl)carbamoyl)-1H-indol-5-yl)difluoromethyl)phosphonic acid], which Ki is on record?
**A.** The Ki was over 10000 nM.

**Q.** For `CC(=O)N1CC[C@H]2CC[C@@H](C(=O)N(C)Cc3ccccc3)N2C(=O)[C@@H](NC(=O)c2cc3cc(C(F)(F)P(=O)(O)O)ccc3[nH]2)C1` [Compound 336, ((2-(((5S,8S,10aR)-3-acetyl-8-(benzyl(methyl)carbamoyl)-6-oxodecahydropyrrolo[1,2-a][1,5]diazocin-5-yl)carbamoyl)-1H-indol-5-yl)difluoromethyl)phosphonic acid], which Ki is on record?
**A.** The Ki was 1000 to 10000 nM.

**Q.** With `CC(=O)N1CC[C@H]2CC[C@@H](C(=O)N[C@@H](C)c3ccccc3)N2C(=O)[C@@H](NC(=O)c2cc3cc(C(F)(F)P(=O)(O)O)ccc3[nH]2)C1` [Compound 337, ((2-(((5S,8S,10aR)-3-acetyl-6-oxo-8-(((S)-1-phenylethyl)carbamoyl)decahydropyrrolo[1,2-a][1,5]diazocin-5-yl)carbamoyl)-1H-indol-5-yl)difluoromethyl)phosphonic acid] as the compound, how does the Ki read?
**A.** Its Ki is 1000 to 10000 nM.

**Q.** How did the Ki turn out when `CC(=O)N1CC[C@H]2CC[C@@H](C(=O)N[C@H](C)c3ccccc3)N2C(=O)[C@@H](NC(=O)c2cc3cc(C(F)(F)P(=O)(O)O)ccc3[nH]2)C1` [Compound 338, ((2-(((5S,8S,10aR)-3-acetyl-6-oxo-8-(((R)-1-phenylethyl)carbamoyl)decahydropyrrolo[1,2-a][1,5]diazocin-5-yl)carbamoyl)-1H-indol-5-yl)difluoromethyl)phosphonic acid] was run?
**A.** The Ki was over 10000 nM.

**Q.** With `CC(=O)N1CC[C@H]2CC[C@@H](C(=O)NC(C)(C)c3ccccc3)N2C(=O)[C@@H](NC(=O)c2cc3cc(C(F)(F)P(=O)(O)O)ccc3[nH]2)C1` [Compound 339, ((2-(((5S,8S,10aR)-3-acetyl-6-oxo-8-((2-phenylpropan-2-yl)carbamoyl)decahydropyrrolo[1,2-a][1,5]diazocin-5-yl)carbamoyl)-1H-indol-5-yl)difluoromethyl)phosphonic acid] as the compound, how does the Ki read?
**A.** Its Ki is over 10000 nM.

**Q.** Which Ki does the source give for `CC(=O)N1CC[C@H]2CC[C@@H](C(=O)NC3(c4ccccc4)CC3)N2C(=O)[C@@H](NC(=O)c2cc3cc(C(F)(F)P(=O)(O)O)ccc3[nH]2)C1` [Compound 340, ((2-(((5S,8S,10aR)-3-acetyl-6-oxo-8-((1-phenylcyclopropyl)carbamoyl)deca hydropyrrolo[1,2-a][1,5]diazocin-5-yl)carbamoyl)-1H-indol-5-yl)difluoromethyl)phosphonic acid] here?
**A.** Its Ki is over 10000 nM.
